The values below come from US20220056037A1 (SPV THERAPEUTICS INC., priority 2018, published 2022).

Assay in all cases: 2D cell proliferation assay (CellTiter-Blue)
Common to all, as to assay type: cell-based
A general note: The colour change of resazurin is a common sign of viable cells or microbes.

One assay concerns LEXFCL MEC-1. Particulars: Homo sapiens, MEC1, 72 h; cell line LEXFCL MEC-1; three days of treatment; read-out: IC (abs. IC50). How it is done:
(§1) Viability of the cells was analyzed by using the CellTiter-Blue® Cell Viability Assay (Promega), and was performed according to manufacturer's instructions. Briefly, cells were harvested from exponential phase cultures (Chapter 6.6), counted and plated in 96-well flat-bottom microtiter plates at a cell density of 4,000-60,000 cells/well in a volume of 140 μl per well. After a 24 hours recovery period, 10 μL cell culture medium (six control wells/plate) or culture medium with test compound were added (Chapter 6.2). The compounds were applied at five concentrations in full-log increments up to 100 μM in duplicate. Cultures were incubated at 37° C. and 5% CO2 in a humidified atmosphere for another three days. After three days of treatment, 20 μl/well CellTiter-Blue® reagent was added. Following incubation with CellTiter-Blue® reagent for up to four hours, fluorescence (FU) was measured by using the Enspire Multimode Plate Reader (excitation λ=570 nm, emission λ=600 nm). For calculations, the mean values of duplicate/sextuplicate (untreated control) data were used.
(§2) Drug effects were expressed in terms of the percentage of the fluorescence signal, obtained by comparison of the mean signal in the treated wells with the mean signal of the untreated controls (expressed by the test-versus-control value, T/C-value [%]):
(§3) IC values are reported as relative IC50 values and absolute IC50 and IC70 values. […] The absolute IC70 value gives the concentration of the test compound that achieves T/C=30%. The relative IC50 value is the concentration of test compound that gives a response half way between the top and bottom plateau of the sigmoidal concentration-response curve (inflection point of the curve). Calculation was done by 4parameter non-linear curve fit (Oncotest Data Warehouse Software).
(§4) If an IC50 or IC70 value could not be determined within the examined dose range (because a compound was either too active or lacked activity), the lowest or highest concentration studied was used for calculation of the geometric mean value.
(§5) The overall potency of a compound was determined by the geometric mean IC50/IC70 values of all individual IC50/IC70 values. In the heatmap representation of IC50 and IC70 values, the distribution of the IC50 or IC70 values obtained for a test compound in the individual cell lines is given in relation to the geometric mean […] or IC70 value, obtained over all PDX models tested. The individual IC values range from 1/32-fold geometric mean IC (corresponding to very potent compound activity or high tumor sensitivity) to 32-fold geometric mean IC (corresponding to lack of compound activity or tumor resistance). The heatmap presentation, therefore, represents an antiproliferative “fingerprint” profile of a test compound.

Another assay concerns CXF HCT-15. Particulars: Homo sapiens, 72 h; cell line CXF HCT-15; three days of treatment; read-out: IC (abs. IC50). The method, then:
as §1, §2, §3, §4, §5

In another assay the test system is LXFA A549. The conditions noted are these: Homo sapiens, 72 h; cell line LXFA A549; three days of treatment; read-out: IC (abs. IC50). How it is done:
as §1, §2, §3, §4, §5

Another assay concerns MEXF A-375. Particulars: Homo sapiens, 72 h; cell line MEXF A-375; three days of treatment; read-out: IC (abs. IC50). The method, then: as §1, §2, §3, §4, §5
Another assay has as its system OVXF SK-OV-3. Particulars: Homo sapiens, 72 h; cell line OVXF SK-OV-3; three days of treatment; read-out: IC (abs. IC50). The method, then: as §1, §2, §3, §4, §5
Another assay has as its system CXF HT-29. The conditions noted are these: Homo sapiens, 72 h; cell line CXF HT-29; three days of treatment; read-out: IC (abs. IC50). The method, then: as §1, §2, §3, §4, §5
For the next assay, the system named is PRXF VCap. The conditions noted are these: Homo sapiens, 72 h; cell line PRXF VCap; three days of treatment; read-out: IC (abs. IC50). The method, then: as §1, §2, §3, §4, §5
The test system of the next assay is LYXFNH Daudi. Particulars: Homo sapiens, 72 h; cell line LYXFNH Daudi; three days of treatment; read-out: IC (abs. IC50). How it is done: as §1, §2, §3, §4, §5
The next assay concerns LIXAH HLE. The conditions noted are these: 72 h; cell line LIXAH HLE; three days of treatment; read-out: IC (abs. IC50). How it is done:
as §1, §2, §3, §4, §5

In a further assay the test system is PRXF DU-145. Particulars: Homo sapiens, 72 h; cell line PRXF DU-145; three days of treatment; read-out: IC (abs. IC50). The method, then:
as §1, §2, §3, §4, §5

The test system of a further assay is LIXAH SNU-398. The conditions noted are these: Homo sapiens, 72 h; cell line LIXAH SNU-398; three days of treatment; read-out: IC (abs. IC50). The method, then: as §1, §2, §3, §4, §5
The next assay relates to PAXF MIA-Pa-Ca-2. Particulars: Homo sapiens, MIA PaCa-2, 72 h; cell line PAXF MIA-Pa-Ca-2; three days of treatment; read-out: IC (abs. IC50). The method, then: as §1, §2, §3, §4, §5
The next assay concerns MEXF M14. Particulars: 72 h; cell line MEXF M14; three days of treatment; read-out: IC (abs. IC50). The method, then: as §1, §2, §3, §4, §5
The test system of a further assay is MAXFTN MDA-MB-453. The conditions noted are these: Homo sapiens, 72 h; cell line MAXFTN MDA-MB-453; three days of treatment; read-out: IC (abs. IC50). How it is done: as §1, §2, §3, §4, §5
A further assay concerns LXFA NCI-H1975. The conditions noted are these: Homo sapiens, 72 h; cell line LXFA NCI-H1975; three days of treatment; read-out: IC (abs. IC50). The method, then:
as §1, §2, §3, §4, §5

A further assay deals with PRXF LNCaP. The conditions noted are these: Homo sapiens, 72 h; cell line PRXF LNCaP; three days of treatment; read-out: IC (abs. IC50). How it is done: as §1, §2, §3, §4, §5
In another assay the test system is MAXFHER BT-474. The conditions noted are these: Homo sapiens, 72 h; cell line MAXFHER BT-474; three days of treatment; read-out: IC (abs. IC50). The method, then: as §1, §2, §3, §4, §5
In the next assay the test system is BXF 5637. Particulars: 72 h; cell line BXF 5637; three days of treatment; read-out: IC (abs. IC50). The method, then:
as §1, §2, §3, §4, §5

Take `CN1CCN(c2ccc(Nc3ncc4cc(C(=O)N(C)C)n(C56CC(C5)C6)c4n3)cc2)CC1` [SPV113]: the IC50 in the assay with LEXFCL MEC-1 is no more than 10 nM; in the assay on CXF HCT-15, 202 nM; with LXFA A549 it was 1230 nM; in the assay with MEXF A-375, 101 nM; in the assay with OVXF SK-OV-3, 3150 nM; in the assay with CXF HT-29 it was 437 nM. Further, the IC50 with PRXF VCap was 15 nM; in the assay with LYXFNH Daudi it was no more than 10 nM; with LIXAH HLE, 229 nM; with PRXF DU-145, 253 nM; with LIXAH SNU-398, 148 nM; in the assay with PAXF MIA-Pa-Ca-2, 105 nM. Moreover, the IC50 in the assay on MEXF M14 was 1010 nM; in the assay with MAXFTN MDA-MB-453, 177 nM; in the assay with LXFA NCI-H1975, 122 nM; with PRXF LNCaP it was 116 nM; with MAXFHER BT-474, 802 nM; with BXF 5637, 476 nM.

A word on the IC50: it is the point on the concentration scale where inhibition reaches its midpoint.
